These results are taken from article PMC11359531, “Establishment of Dissolution Test Method for Multi-Components in Traditional Chinese Medicine Preparations Based on In Vitro–In Vivo Correlation” (Pharmaceuticals, 2024).

Like-named read-outs stand apart in the source and are kept apart here.

Data set [1] in a line: Pharmacokinetic study of the Q-markers in beagle dogs. To be noted: dog. How it is done: An ACQUITY UPLC system from Waters was used for chromatography separation, equipped with a Waters Cortecs C18 column (1.7 μm, 2.1 mm × 50 mm) operated at a flow rate of 0.30 mL/min. The column temperature and auto-sampler temperature were set as 45 °C and 4 °C, respectively. The mobile phases were 10 mM ammonium acetate solution (pH 5.0 by acetic acid) (A) and acetonitrile (B) and the gradient elution used was as follows: 30–39% B from 0–3.3 min, 39–95% B from 3.3–5.4 min, 95% B from 5.4–7.4 min, 95–30% B from 7.4–13.5 min, and 30% B from 13.5–16.0 min. The injection volume was 3 μL. The AB SCIEX Qtrap™ 6500 LC-MS/MS system with electron spray ionization (ESI) source in multiple reaction monitoring (MRM) mode was used for MS analysis. The detection was performed under the following conditions: source temperature (at set point) at 550.0 °C, positive ion mode, GS1 at 40 psi, GS2 at 40 psi, CUR at 45 psi, CXP at 15 V, DP at 100 V, and EP at 10 V. Quantitative analysis of analytes in MRM mode was used to determine the transition of precursor ions to specific product ions (m/z): tetrahydropalmatine, m/z […] [M + H]+ → m/z 229.0 (collision energy, CE: 17 V), corydaline, m/z […] (CE: 17 V), protopin, m/z […] [M + H]+ → m/z 227.1 (CE: 23 V), allocryptopine, m/z […] [M + H]+ → m/z 373.2 (CE: 17 V), and byakangelicin, m/z 389.2 [M + H]+ → m/z 363.1 (CE: 17 V). The data were processed using MultiQuant™ 2.1 software purchased from SCIEX.
The standard solutions of tetrahydropalmatine, corydaline, protopin, α-allocryptopine, and byakangelicin were prepared by dissolving them in acetonitrile to obtain a mixed standard stock solution, which was further diluted with acetonitrile to prepare a series of different concentration gradient mixed standard solutions. An internal standard solution of 25 ng/mL was prepared from betamethasone solution (500 μg/mL) diluted with acetonitrile. Blank dog blood was collected through intravenous blood sampling, and plasma was obtained by centrifugation. To prepare the standard plasma sample, 25 μL of the mixed standard solution was added to 100 μL of blank plasma, and 400 μL of acetonitrile was added and vortexed for protein precipitation. The supernatant was acquired by centrifugation and blown dry with nitrogen. Then, 100 μL of acetonitrile was added to the dried supernatant, and the resulting solution was mixed to gain the standard plasma sample. Different mixed standard solution including a serial of concentrations of tetrahydropalmatine: 0.625–25 ng/mL, corydaline: 0.625–25 ng/mL, protopin: 0.1–4 ng/mL, α-allocryptopine: 0.1–4 ng/mL, byakangelicin: 18.75–750 ng/mL were applied to prepare standard plasma sample and quality control (QC) samples of plasma as follows: 1.25, 5, and 20 ng/mL for tetrahydropalmatine and corydaline, 0.2, 0.8, and 3.2 ng/mL for protopin and α-allocryptopine, and 37.5, 150, and 600 ng/mL for byakangelicin.
For pharmacokinetic study, six beagle dogs were used and housed in a professional animal breeding room with a relative humidity of 55–60% and a temperature of 25 °C for one week. The experimental operation was carried out in accordance with ethical requirements for animal experiments and approved by the Institutional Animal Care and Use Committee of the School of Pharmacy, Fudan University. The dogs had free access to drinking water and were fasted for 24 h before the experiment. The dogs were randomly divided into two groups, one group receiving an oral dose of 12 tablets with brand A (tetrahydropalmatine 2.5 mg, corydaline 0.963 mg, protopin 1.896 mg, α-allocryptopine 0.917 mg, and byakangelicin 2.783 mg), while the other group were given an intravenous dose of 2 mL of normal saline containing tetrahydropalmatine 19.75 μg, corydaline 4.54 μg, protopin 168.062 μg, α-allocryptopine 297.16 μg, and byakangelicin 78.68 μg. Blood samples of 2 mL were taken at 15, 30, 45, 60, 90, 120, 150, 180, 240, 360, 480, 720, and 1440 min after dosing.

For data set [2] the following is noted: dog, in vivo.
Source text: The Phoenix WinNonlin IVIVC tool was utilized to evaluate the relationship between in vivo drug dissolution rate and blood drug concentration, which utilizes the Unit Impulse Response (UIR) function for this purpose. By using intravenous administration as the input for the unit impulse response, the influence of drug absorption can be eliminated. The obtained UIR function will be utilized for the deconvolution of pharmacokinetic data to obtain the curve of cumulative drug absorption over time [50]. (8) Y(t)=A×exp[Alpha×(t×Ka−tlag)] in which Y(t) is unit impulse response, A is the coefficient value, Alpha is the exponential value, Ka is the absorption rate constant, tlag is the lag time.
Data set [3] is described as follows: Caco-2 transport assay (Peff). To be noted: human.
For data set [4] the following is noted: dog, in vivo. The source holds these as a separate data set.
Source text: In order to further apply the identified in vivo correlated dissolution conditions to different batches of YZTs, another brand of YZTs was selected for external validation of the dissolution conditions and IVIVC model results. The dissolution data of different brands in the identified media were input into the established IVIVC model to obtain the predicted blood concentration–time curve and to compare the PE% between the predicted value and the actual value.

For orientation: AUC(0-inf) means total exposure, with the tail of the curve extrapolated. Read a high AUC(0-inf) as more exposure. As a reminder, the AUC(0-t) is the area under the concentration-time curve up to a stated or last time point. Read a low AUC(0-t) as less exposure. In general, Cmax refers to the maximum level reached in the sampled fluid or tissue. A word on the Tmax: it is the time at which the peak concentration occurs. As usually defined, the half-life is how long it takes for the measured level to halve. Low readings indicate fast loss, high ones slow loss. In general, AUC refers to the area under the concentration-time curve, a measure of exposure. A word on the bioavailability: it is dose-corrected exposure relative to a reference, in per cent. Usually Papp stands for the rate of passage across a membrane or cell layer, normalised by area and donor concentration. Lower therefore signals poor permeation. On to `COc1cc2c(cc1OC)[C@@H]1Cc3ccc(OC)c(OC)c3CN1CC2` [Tetrahydropalmatine, tetrahydropalmatine], for which, in data set [1] (beagle, plasma, iv), the AUC(0-inf) is 10.9 ng·h/mL, the AUC(0-t) is 9.87 ng·h/mL, the maximum concentration (Cmax) was 11.4 ng/mL and the Tmax was 0.0833 h. In data set [1] (beagle, plasma, iv), the half-life came to 6.66 h. In data set [1] (beagle, plasma, po), this compound had an exposure (AUC) of 136 ng·h/mL, an area under the curve AUC(0-inf) of 137 ng·h/mL, an AUC(0-t) of 136 ng·h/mL and a Cmax of 45.7 ng/mL. Besides, in data set [1] (beagle, plasma, po), the Tmax is 1.5 h, the bioavailability came to 10.8% and the half-life came out at 3.9 h. Besides, in data set [2] (beagle), the “UIR parameter A1, Estimate” value is 0.04 ng/mL; the “UIR parameter Ka, Estimate” value was 1.28 h⁻¹; the “UIR parameter Tlag, Estimate” value is on record as 0.40 h; the “UIR parameter alpha1, Estimate” value is 1.30 h⁻¹. In data set [3], this compound had a Papp at 120 min of 3.76 ×10⁻⁶ cm/s.

For protopine, the “Bioavailability (absolute oral)” value in data set [1] (in vivo) is 1.35%. In addition, in data set [1] (in vivo, iv), the Cl/F amounted to 0.03 L/h, the Cmax came to 12.44 ng/mL, the T1/2 worked out at 4.5773 h and the Tmax was determined as 0.083 h. In data set [1] (in vivo, iv), this compound displayed a Vz/F of 0.22 L. For the same compound, in data set [1] (in vivo, po), the Cl/F is listed as 0.21 L/h, the Cmax came out at 1.63 ng/mL, the “Observed AUC” value was 205.15 and the Observed Cmax was 1.63 ng/mL. Besides, in data set [1] (in vivo, po), the T1/2 is 5.321 h, the Tmax was 1.5 h and the Vz/F amounted to 1.64 L. Where the note is “pH 1.2”, the “Solubility, 0.1 M HCl” value turned out to be 4700 ± 384 µg/mL. In addition, under “pH 4.5”, the “Solubility, Acetate Buffer” value was determined as 5403 ± 378 µg/mL. In addition, the “Solubility, Phosphate Buffer” value (pH 6.8) was 535 ± 17.2 µg/mL. Moreover, the “In Vitro Caco-2 Cell Permeability (Peff)” value with Caco-2 cells was 7.49 ± 0.0803 ×10⁻⁶ cm/s. Besides, in data set [2], the “UIR parameter A1, Estimate” value was 0 ng/mL; the “UIR parameter Ka, Estimate” value was 1.36 h⁻¹; the “UIR parameter Tlag, Estimate” value is listed as 0.44 h; the “UIR parameter alpha1, Estimate” value is 1.35 h⁻¹. In data set [4], the “Observed AUC” value worked out at 205.15, the “Observed Cmax” value is 1.15 ng/mL, the “Predicted AUC” value is 218.10 and the “Predicted Cmax” value is listed as 1.26 ng/mL.

Consider `COc1cc2c(cc1OC)[C@H]1[C@@H](C)c3ccc(OC)c(OC)c3CN1CC2` [Corydaline, corydaline], for which, in data set [1] (beagle, plasma, iv), the AUC(0-inf) was 7.18 ng·h/mL, the AUC(0-t) is 6.5 ng·h/mL, the Cmax stood at 5.01 ng/mL and the Tmax is 0.0833 h. In data set [1] (beagle, plasma, iv), this compound returned a half-life of 3.96 h. Moreover, in data set [1] (beagle, plasma, po), the AUC is 74.2 ng·h/mL, the AUC(0-inf) was 81.1 ng·h/mL, the AUC(0-t) is 74.2 ng·h/mL and the Cmax is 24.8 ng/mL. Further, in data set [1] (beagle, plasma, po), the Tmax was 1.5 h, the bioavailability came out at 5.38% and the half-life turned out to be 8.74 h. In data set [3], this compound gave a Papp at 120 min of 3.94 ×10⁻⁶ cm/s.

As to `COc1ccc2c(c1OC)CN(C)CCc1cc3c(cc1C(=O)C2)OCO3` [α-allocryptopine], in data set [1] (beagle, in vivo, iv), the AUC(0-inf) was 39.6 ng·h/mL, the AUC(0-t) is 35.9 ng·h/mL, the peak level (Cmax) was 32.8 ng/mL and the Tmax was 0.0833 h. Also, in data set [1] (beagle, in vivo, iv), the half-life came to 5.52 h. In data set [1] (beagle, in vivo, po), this compound gave an exposure (AUC) of 8.31 ng·h/mL, an area under the curve AUC(0-inf) of 9.12 ng·h/mL, an AUC(0-t) of 8.31 ng·h/mL and a Cmax of 3.51 ng/mL. In data set [1] (beagle, in vivo, po), the time to peak (Tmax) is 1 h, the bioavailability was 7.5% and the half-life is 8.39 h. Further, the Papp at 120 min in data set [3] was determined as 13.4 ×10⁻⁶ cm/s.

As for `COc1c2ccoc2c(OC[C@@H](O)C(C)(C)O)c2oc(=O)ccc12` [Byakangelicin, byakangelicin], in data set [1] (beagle, plasma, iv), the AUC(0-inf) is 11.7 ng·h/mL, the AUC(0-t) was 11.1 ng·h/mL, the highest level (Cmax) was 11.8 ng/mL and the Tmax was 0.0833 h. Also, the half-life in data set [1] (beagle, plasma, iv) came to 0.775 h. In data set [1] (beagle, plasma, po), this compound had an AUC of 59.7 ng·h/mL, an area under the curve AUC(0-inf) of 65.3 ng·h/mL, an AUC(0-t) of 59.7 ng·h/mL and a Cmax of 27.3 ng/mL. Also, in data set [1] (beagle, plasma, po), the Tmax is 1 h, the bioavailability amounted to 3.81% and the half-life was found to be 3.29 h. Further, the apparent permeability (Papp) at 120 min in data set [3] turned out to be 8.95 ×10⁻⁶ cm/s.
